The source of these data is paper PMC5244594 (Biotechnology for Biofuels, 2017).

Structures are written as SMILES.

The target of this test is T1, GLT-1 (Neurospora crassa, UniProt Q1K4S3).
T1 construct: gene NCU01633
Description: radiolabeled glucose uptake in S. cerevisiae EBY.VW4000. To be noted: labelled compound; transport into whole yeast cells expressing the eGFP fusion. It is filed as cell-based.

T1 sequence (Q1K4S3 entry or part of it): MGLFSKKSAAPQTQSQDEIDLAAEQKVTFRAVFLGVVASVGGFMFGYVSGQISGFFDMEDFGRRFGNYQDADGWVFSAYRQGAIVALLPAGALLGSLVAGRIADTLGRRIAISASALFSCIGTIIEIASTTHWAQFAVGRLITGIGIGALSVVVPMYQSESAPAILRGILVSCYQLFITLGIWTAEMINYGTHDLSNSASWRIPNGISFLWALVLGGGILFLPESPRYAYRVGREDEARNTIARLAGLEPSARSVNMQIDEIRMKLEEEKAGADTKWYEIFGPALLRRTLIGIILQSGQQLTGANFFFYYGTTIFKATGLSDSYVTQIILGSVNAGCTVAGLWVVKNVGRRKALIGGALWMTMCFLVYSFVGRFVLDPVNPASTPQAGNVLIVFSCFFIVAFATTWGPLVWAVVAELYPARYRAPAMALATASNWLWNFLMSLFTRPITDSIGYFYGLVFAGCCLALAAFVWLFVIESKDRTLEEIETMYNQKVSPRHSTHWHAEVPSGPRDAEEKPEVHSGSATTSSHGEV

Turning to `OC[C@H]1OC(O)[C@H](O)[C@@H](O)[C@@H]1O` (stereo partly shown) [glucose], the Michaelis-Menten constant (Km) (in general, the substrate concentration at which the rate is half of its maximum) was 18.4 ± 3.38 mM.
